Data taken from US9376449B2, “Indole carboxamide derivative” (Astellas Pharma Inc., priority 2012, dated 2016).

What was measured:
3T3 = experiment: In vitro 3T3 NRU phototoxicity test; format: cell-based
Protocol: Test Example 6 Drug Pharmacokinetic Test, Safety Pharmacology Test, and Toxicity Test
Using some Example compounds of the present invention, a drug Pharmacokinetic test, a safety pharmacology test, and a toxicity test were carried out.
(iii) For the toxicity test, for example, an in vitro phototoxicity test was carried out. The evaluation of the in vitro phototoxicity test was carried out in accordance with Guidance for industry photosafety testing, Center for Drug Evaluation and Research Food and Drug Administration, 2003, which is a guideline of FDA (U.S. Food and Drug Administration), and Note for guidance on photosafety testing (CPMP/SWP/398/01, 2002) which is a guideline of EMA (European Medicines Agency), and the method described in OECD guideline for testing of chemicals 432: In vitro 3T3 NRU phototoxicity test, 2004, which is a test method described in the report of OECD.

urethral pressure = experiment: Effect of test compound on urethral pressure in anesthetized rats; format: in vivo, rat; details: for Increment value in the urethra pressures (mmHg): 0.1 mg/kg intravenously, urethane-anesthetized SD female rats; for urethra pressure increasing action: dose of 0.1 mg/kg
Description: Test Example 3 Test to Evaluate Effect of Test Compound on Urethral Pressure
It has been reported that an increase in the urethra pressure is useful for the treatment of urinary incontinence, particularly stress urinary incontinence (for example, Drugs, 64, 14, 1503-1516 (2004)). In order to confirm whether the compound of the present invention increases the urethra pressure and thus is useful for the treatment of urinary incontinence, particularly stress urinary incontinence, the following tests were carried out.
SD female rats were anesthetized with urethane and subjected to laparotomy. Then, the bladder apex was incised and a catheter was inserted from the bladder apex. Further, the catheter tip was ligated and fixed to be located in the proximal urethra portion. The catheter was connected to a pressure transducer and an infusion pump. Further, a catheter for administrating the compound was fitted into the femoral vein. Physiological saline was continuously infused into the urethra and the perfusion pressure in the urethra was measured. After the urethral pressure was stabilized, the test compound that had been dissolved in physiological saline, or physiological saline including 5% dimethylacetamide and 0.5% Cremophor was administered intravenously at 0.1 mg/kg, and a change in urethral pressures was measured.
Further, the results of administering an active metabolite of midodrine (ST-1059: purchased from CHEMIZON) (J. Urology, 118, 980-982 (1977)) which is an α1 adrenoceptor agonist and has an effect on stress urinary incontinence in rat doses (0.01 mg/kg) presumed to correspond to the clinical doses are referenced and shown in the Tables below. The increment value in the urethra pressures of ramelteon and the Example compounds of the present invention at the time of administration are shown in Table 4. Ex represents Example No. of the test compound.

human MT1 receptor = human MT1 receptor (Homo sapiens, UniProt P48039); experiment: Activation of human MT1 receptor in receptor-expressing HEK293 cells (intracellular Ca2+, FLIPR); format: cell-based; details: for Emax: HEK293, maximum reaction by ramelteon taken as 100%, solvent only 0%, read-out: MT1 Emax (%); for EC50: HEK293 cells stably expressing human MT1 and Gq/i chimeric G-protein, intracellular Ca2+ by FLIPR
Protocol: (1) Isolation of Human MT1 and MT2 Receptor and Construction of Expression Vector
A human MT1 receptor gene (GenBank Accession No.: NM_005958.3) and a human MT2 receptor gene (GenBank Accession No.: NM_005959.3) were each introduced into an expression vector pCDNA3.1/Zeo (Invitrogen, Inc.).
(2) Construction of Cells Stably Expressing Human MT1 and Human MT2 Receptor
The introduction was carried out according to the attached instructions, using a Lipofectoamine (registered trademark) 2000 Reagent (Invitrogen, Inc.). Zeocin and hygromycin were used as a resistant drug, and the cell was incubated for 15 days at 0.02 mg/mL and 0.05 mg/mL, respectively, thereby acquiring drug-resistant clones.
(3) Measurement of Intracellular Ca^2+ Concentration by FLIPR (Registered Trademark)
The respective stably expressing cells were dispensed into 96-well poly-D-lysine-coated plates (Falcon Co.) to 40,000 cells/well the day before the experiment, and incubated overnight in a DMEM (Invitrogen, Inc.) medium including 10% FBS at 37° C. and 5% CO2. The medium was replaced with a loading buffer (washing solution (Hank's balanced salt solution (HBSS), 20 mM HEPES-NaOH, 2.5 mM probenecid) including Fluo-4AM (Dojindo Co.) at 4 μM), and incubated for 1 hour at 37° C. and 5% CO2. Thereafter, the cells were washed with a plate washer (ELx405, BIO-TEK Instrument, Inc.) set with the washing solution, and set in an intracellular Ca^2+ concentration measuring systems (FLIPR (registered trademark), Molecular Device Co.). The test compound was dissolved in the washing solution in advance, diluted to a final concentration of −12 to −5 log M, set in a FLIPR (registered trademark) device together with the cells, and added to the cells in the device. At this time, a change in the intracellular Ca^2+ concentrations was measured.
(§1) Ex represents Example No. of the test compound.

[1] = CNS penetration: CSF to plasma unbound concentration ratio in rat; format: in vivo; details: CSF and plasma (unbound), iv; for Kp uu at 0.25 h: 15 minutes after intravenous administration, CCSF/Cplasma,u, read-out: Kp,uu,CSF,iv15min
Protocol: Test Example 4 Test for Evaluating CNS Penetration
(1) Measurement of Unbound Fraction (fp) in Rat Plasma
A test compound (100 μg/mL, 50% acetonitrile solution) at 1% (v/v) with respect to the amount of the plasma was added to rat plasma, and dispensed to a sample for a supernatant and a sample for the plasma. The sample for a supernatant was ultracentrifuged at 436,000×g and 37° C. for 140 minutes, and the sample for the plasma was incubated at 37° C. for 140 minutes.
After 140 minutes, the sample for a supernatant after the ultracentrifugation and the sample for the plasma were taken, and mixed with the blank plasma or the blank supernatant, respectively. Acetonitrile including an internal standard material was added to each of the samples, and after the centrifugation at 2150×g and 4° C. for 10 minutes the supernatant was injected into LC-MS/MS.
The unbound fraction in the plasma was calculated by the following equation.
(wherein fp: an unbound fraction in the plasma and D: a dilution rate of the plasma. fu,app=peak area ratio of supernatant sample/peak area ratio of the plasma sample, and peak area ratio=peak area of test compound/peak area of internal standard material).
(2) The CSF to Plasma Unbound Concentration Ratio in Rat
A 50% acetonitrile solution and an acetonitrile including internal standard material was added to the collected plasma or CSF. After centrifugation at 4° C. and 2150×g for 10 minutes, the supernatant was injected into LC-MS/MS, and the total concentration of the test compound in the plasma (Cplasma,t) and the concentration of the test compound in CSF (CCSF) were obtained. The unbound concentration in the plasma (Cplasma,u) of the test compound and the CSF-to plasma unbound concentration ratio (Kp,uu,CSF) of the test compound was calculated by the following equation.
as §1

Sequence of human MT1 receptor (P48039 whole entry): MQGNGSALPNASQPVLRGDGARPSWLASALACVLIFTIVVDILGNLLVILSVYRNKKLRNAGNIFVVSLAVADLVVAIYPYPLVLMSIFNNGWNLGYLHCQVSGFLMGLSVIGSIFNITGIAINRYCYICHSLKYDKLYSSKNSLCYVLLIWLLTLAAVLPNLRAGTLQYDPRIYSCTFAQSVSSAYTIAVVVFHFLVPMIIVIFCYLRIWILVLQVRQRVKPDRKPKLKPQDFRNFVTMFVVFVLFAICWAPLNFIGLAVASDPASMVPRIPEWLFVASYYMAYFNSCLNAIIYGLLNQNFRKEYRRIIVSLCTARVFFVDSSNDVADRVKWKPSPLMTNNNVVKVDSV

Emax (human MT1 receptor) | EC50 (human MT1 receptor) | Kp uu at 0.25 h [1] | Kp uu at 10 min ([1]; 10 minutes after the intravenous administration) | Compound | phototoxicity action (3T3) | Increment value in the urethra pressures (mmHg) (urethral pressure) | urethra pressure increasing action (urethral pressure; in words) | increment value in the urethra pressures compared with ST-1059 (urethral pressure; 0.1 mg/kg i.v. versus ST-1059 0.01 mg/kg, in words)
102% | 11 nM | 0.11 |  | CNC(=O)c1[nH]c2ccc(OC)cc2c1CCNC(=O)C(F)F [Ex 2, 3-{2-[(difluoroacetyl)amino]ethyl}-5-methoxy-N-methyl-1H-indole-2-carboxamide] | no phototoxicity action | 10.6 ± 3.5 mmHg | good urethra pressure increasing action | 
86% | 20 nM | 0.08 |  | CNC(=O)c1[nH]c2cc(F)c(OC)cc2c1CCNC(C)=O [Ex 17] | no phototoxicity action | 9.0 ± 1.0 mmHg | good urethra pressure increasing action | 
100% | 0.28 nM |  | > 1 | CCC(=O)NCC[C@@H]1CCc2ccc3c(c21)CCO3 [Ramelteon, reference compound] |  | 11.1 ± 1.7 mmHg |  | equal to or more than that of ST-1059
